Assay [1] has as its system pNL4-3 SP1-V7A. The assay is described as follows: CA-SP1 accumulation assay, SP1-V7A derivative. The following applies: HeLa or 293T cells; for % CA-SP1 Accumulation 100 nM SP1 V7A: 100 nM compound; for % CA-SP1 Accumulation 10 nM SP1 V7A: 10 nM compound. In kind it is cell-based, HIV-1. The method, then:
(§1) Cell culture, plasmids and transfections. The MT-4 T-cell line was maintained in RPMI-1640 medium supplemented with 10% (vol/vol) fetal bovine serum (FBS), 2 mM glutamine, 100 U/mL penicillin and 100 μg/mL streptomycin at 37° C. in a humidified 5% CO2 atmosphere. HeLa and 293T cells were maintained in Dulbecco's modified Eagle's medium (DMEM) supplemented with 5% (vol/vol) FBS, 2 mM glutamine, 100 U/mL penicillin and 100 μg/mL streptomycin. Molecular clones used in this study were WT pNL4-3 and the derivative encoding a Val-to-Ala mutation at SP1 residue 7, referred to as SP1-V7A. The MT-4 T-cell line was transfected the DEAE/dextran procedure; HeLa and 293T cells were transfected with linear polyethylenimine (L-PEI) or Lipofectamine 2000 (Invitrogen) as recommended by the supplier.
(§2) CA-SP1 accumulation assay. For CA-SP1 accumulation assays, HeLa or 293T cells were transfected with WT pNL4-3 or the SP1-V7A derivative. At 24 h post-transfection, cells were starved in Met/Cys-free medium for 30 min and metabolically labeled with [^35S]Met/Cys-Pro-mix (Amersham) for 2-3 h. Maturation inhibitors were maintained in the cultures throughout the transfection and labeling period. Viruses were collected by ultracentrifugation at 99,000×g for 45-60 min. Virus pellets were resuspended in Triton X-100 lysis buffer [300 mM NaCl, 50 mM Tris-HCl (pH 7.5), 0.5% Triton X-100, 10 mM iodoacetamide, and protease inhibitor cocktail tablets (Roche)]. CA and CA-SP1 proteins were separated on 13.5-15% polyacrylamide gels by SDS-polyacrylamide gel electrophoresis, exposed to a phosphorimager plate (Fuji) and quantified by Quantity One software (Bio-Rad).

For assay [2], the system named is WT pNL4-3. The assay is described as follows: CA-SP1 accumulation assay, WT NL4-3. The conditions noted are these: HeLa or 293T cells; for % CA-SP1 Accumulation 100 nM NL4-3: 100 nM compound; for % CA-SP1 Accumulation 10 nM NL4-3: 10 nM compound. In kind it is cell-based, HIV-1. The method, then:
as §1, §2

Structures are written as SMILES. Structures can show the parent of a compound that is named as a salt.

On to `C=C(C)[C@@H]1CC[C@]2(CCNCCCN3CCCC3=O)CC[C@]3(C)[C@H](CC[C@@H]4[C@@]5(C)CC[C@H](OC(=O)CC(C)(C)CC(=O)O)C(C)(C)[C@@H]5CC[C@]43C)[C@@H]12` [Compound 51a, (3β)-17-[2-[[3-(2-Oxopyrrolidin-1-yl)propyl]amino]ethyl]-28-norlup-20(29)-en-3-ol, 3-(Hydrogen 3,3-Dimethylpentanedioate)], for which the “% CA-SP1 Accumulation 100 nM SP1 V7A” value in assay [1] is 18.0%. Besides, the “% CA-SP1 Accumulation 100 nM NL4-3” value in assay [2] was 62.0%.
Take `C=C(C)[C@@H]1CC[C@]2(CCNCCN3CCC(S(C)(=O)=O)CC3)CC[C@]3(C)[C@H](CC[C@@H]4[C@@]5(C)CC[C@H](OC(=O)CC(C)(C)C(=O)O)C(C)(C)[C@@H]5CC[C@]43C)[C@@H]12` [Compound 51gg, (3β)-17-[2-[[2-[4-(Methylsulfonyl)piperidin-1-yl]ethyl]amino]ethyl]-28-norlup-20(29)-en-3-ol, 3-(1-Hydrogen 2,2-Dimethylbutanedioate)]: the “% CA-SP1 Accumulation 10 nM SP1 V7A” value in assay [1] amounted to 30.9%. For the same molecule, in assay [2], the “% CA-SP1 Accumulation 10 nM NL4-3” value was found to be 57.7%.
Turning to `C=C(C)[C@@H]1CC[C@]2(CCNCCN3CCN(c4ccccc4)CC3)CC[C@]3(C)[C@H](CC[C@@H]4[C@@]5(C)CC[C@H](OC(=O)CC(C)(C)C(=O)O)C(C)(C)[C@@H]5CC[C@]43C)[C@@H]12` [Compound 51p, (3β)-17-[2-[[2-(4-Phenylpiperazin-1-yl)ethyl]amino]ethyl]-28-norlup-20(29)-en-3-ol, 3-(1-Hydrogen 2,2-Dimethylbutanedioate)], the “% CA-SP1 Accumulation 10 nM SP1 V7A” value in assay [1] is 22.5%. In addition, in assay [2], the “% CA-SP1 Accumulation 10 nM NL4-3” value came to 60.0%.
For `C=C(C)[C@@H]1CC[C@]2(CCNCCN3CCN(Cc4ccc(F)cc4)CC3)CC[C@]3(C)[C@H](CC[C@@H]4[C@@]5(C)CC[C@H](OC(=O)CC(C)(C)C(=O)O)C(C)(C)[C@@H]5CC[C@]43C)[C@@H]12` [Compound 51l, (3β)-17-[2-[[2-[4-(4-Fluorophenylmethyl)piperazin-1-yl]ethyl]amino]ethyl]-28-norlup-20(29)-en-3-ol, 3-(1-Hydrogen 2,2-Dimethylbutanedioate)], in that order: 38.2 (3) % and 48.9%.
As to `C=C(C)[C@@H]1CC[C@]2(CCCNCCN3CCN(Cc4ccccc4)CC3)CC[C@]3(C)[C@H](CC[C@@H]4[C@@]5(C)CC[C@H](OC(=O)CC(C)(C)C(=O)O)C(C)(C)[C@@H]5CC[C@]43C)[C@@H]12` [Compound 51bb, (3β)-17-[3-[[2-[4-(Phenylmethyl)piperazin-1-yl]ethyl]amino]propyl]-28-norlup-20(29)-en-3-ol, 3-(1-Hydrogen 2,2-Dimethylbutanedioate) Sesquisulfate], in assay [1], the “% CA-SP1 Accumulation 10 nM SP1 V7A” value is 4.8% and the “% CA-SP1 Accumulation 100 nM SP1 V7A” value came out at 3.7%. In assay [2], the “% CA-SP1 Accumulation 10 nM NL4-3” value stood at 5.8% and the “% CA-SP1 Accumulation 100 nM NL4-3” value amounted to 8.4%.
As to `CN1CCN(CCCNCC[C@]23CC[C@@H](C4(C)CC4)[C@@H]2[C@H]2CC[C@@H]4[C@@]5(C)CC[C@H](OC(=O)CC(C)(C)C(=O)O)C(C)(C)[C@@H]5CC[C@@]4(C)[C@]2(C)CC3)CC1` [Compound 51i, (3β)-17-[2-[[3-(4-Methylpiperazin-1-yl)propyl]amino]ethyl]-20,29-methano-28-norlupan-3-ol, 3-(1-Hydrogen 2,2-Dimethylbutanedioate)], the “% CA-SP1 Accumulation 100 nM SP1 V7A” value in assay [1] is 22.0%. Besides, the “% CA-SP1 Accumulation 100 nM NL4-3” value in assay [2] is listed as 71.9%.
As to `C=C(C)[C@@H]1CC[C@]2(CCNCCN3CCC(O)CC3)CC[C@]3(C)[C@H](CC[C@@H]4[C@@]5(C)CC[C@H](OC(=O)CC(C)(C)C(=O)O)C(C)(C)[C@@H]5CC[C@]43C)[C@@H]12` [Compound 51ii, (3β)-17-[2-[[2-(4-Hydroxypiperidin-1-yl)ethyl]amino]ethyl]-28-norlup-20(29)-en-3-ol, 3-(1-Hydrogen 2,2-Dimethylbutanedioate)], in assay [1], the “% CA-SP1 Accumulation 10 nM SP1 V7A” value was 29.5 (3) %. In assay [2], the “% CA-SP1 Accumulation 10 nM NL4-3” value amounted to 70.1%.
In the case of `C=C(C)[C@@H]1CC[C@]2(CCNCCC(=O)N3CCN(C)CC3)CC[C@]3(C)[C@H](CC[C@@H]4[C@@]5(C)CC[C@H](OC(=O)CC(C)(C)CC(=O)O)C(C)(C)[C@@H]5CC[C@]43C)[C@@H]12` [Compound 51b, (3β)-17-[2-[[3-(4-Methylpiperazin-1-yl)-3-oxopropyl]amino]ethyl]-28-norlup-20(29)-en-3-ol, 3-(Hydrogen 3,3-Dimethylpentanedioate)], in assay [1], the “% CA-SP1 Accumulation 100 nM SP1 V7A” value is given as 21.0%. The “% CA-SP1 Accumulation 100 nM NL4-3” value in assay [2] is 58.0%.
With `C=C(C)[C@@H]1CC[C@]2(CNCCN3CCN(S(C)(=O)=O)CC3)CC[C@]3(C)[C@H](CC[C@@H]4[C@@]5(C)CC[C@H](OC(=O)CC(C)(C)C(=O)O)C(C)(C)[C@@H]5CC[C@]43C)[C@@H]12` [Compound 51x, (3β)-28-[[2-[4-(Methylsulfonyl)piperazin-1-yl]ethyl]amino]lup-20(29)-en-3-ol, 3-(1-Hydrogen 2,2-Dimethylbutanedioate) Sulfate], in assay [1], the “% CA-SP1 Accumulation 10 nM SP1 V7A” value is given as 31.0% and the “% CA-SP1 Accumulation 100 nM SP1 V7A” value was 26.9%. Besides, in assay [2], the “% CA-SP1 Accumulation 10 nM NL4-3” value came to 56.6% and the “% CA-SP1 Accumulation 100 nM NL4-3” value is 74.3%.
On to `C=C(C)[C@@H]1CC[C@]2(CCNCCN3CCN(Cc4ccccn4)CC3)CC[C@]3(C)[C@H](CC[C@@H]4[C@@]5(C)CC[C@H](OC(=O)CC(C)(C)C(=O)O)C(C)(C)[C@@H]5CC[C@]43C)[C@@H]12` [Compound 51u, (3β)-17-[2-[[2-[4-(2-Pyridinylmethyl)piperazin-1-yl]ethyl]amino]ethyl]-28-norlup-20(29)-en-3-ol, 3-(1-Hydrogen 2,2-Dimethylbutanedioate)], for which the “% CA-SP1 Accumulation 10 nM SP1 V7A” value in assay [1] is listed as 30.2 (2) %. In assay [2], the “% CA-SP1 Accumulation 10 nM NL4-3” value was 53.8%.
For the molecule `C=C(C)[C@@H]1CC[C@]2(CCNCCCN3CCN(CCOC)CC3)CC[C@]3(C)[C@H](CC[C@@H]4[C@@]5(C)CC[C@H](OC(=O)CC(C)(C)CC(=O)O)C(C)(C)[C@@H]5CC[C@]43C)[C@@H]12` [Compound 51e, (3β)-17-[2-[[3-[4-(2-Methoxyethyl)piperazin-1-yl]propyl]amino]ethyl]-28-norlup-20(29)-en-3-ol, 3-(Hydrogen 3,3-Dimethylpentanedioate)], the “% CA-SP1 Accumulation 100 nM SP1 V7A” value in assay [1] is 23.1 (3) %. Further, the “% CA-SP1 Accumulation 100 nM NL4-3” value in assay [2] is recorded as 70.4 (3) %.
Take `CN(C)CCCCNCC[C@]12CC[C@@H](C3(C)CC3)[C@@H]1[C@H]1CC[C@@H]3[C@@]4(C)CC[C@H](OC(=O)CC(C)(C)C(=O)O)C(C)(C)[C@@H]4CC[C@@]3(C)[C@]1(C)CC2` [Compound 51j, (3β)-17-[2-[[(4-Dimethylamino)butyl]amino]ethyl]-20,29-methano-28-norlupan-3-ol, 3-(1-Hydrogen 2,2-Dimethylbutanedioate)]: the “% CA-SP1 Accumulation 100 nM SP1 V7A” value in assay [1] was 6.4%. The “% CA-SP1 Accumulation 100 nM NL4-3” value in assay [2] was 53.6%.
On to `C=C(C)[C@@H]1CC[C@]2(CCNCCN3CCN(CC4CCCCC4)CC3)CC[C@]3(C)[C@H](CC[C@@H]4[C@@]5(C)CC[C@H](OC(=O)CC(C)(C)C(=O)O)C(C)(C)[C@@H]5CC[C@]43C)[C@@H]12` [Compound 51s, (3β)-17-[2-[[2-[4-(Cyclohexylmethyl)piperazin-1-yl]ethyl]amino]ethyl]-28-norlup-20(29)-en-3-ol, 3-(1-Hydrogen 2,2-Dimethylbutanedioate)], for which the “% CA-SP1 Accumulation 10 nM SP1 V7A” value in assay [1] came out at 14.5%. Besides, in assay [2], the “% CA-SP1 Accumulation 10 nM NL4-3” value turned out to be 48.7%.
Consider `C=C(C)[C@@H]1CC[C@]2(CCCNCCN3CCS(=O)(=O)CC3)CC[C@]3(C)[C@H](CC[C@@H]4[C@@]5(C)CC[C@H](OC(=O)CC(C)(C)C(=O)O)C(C)(C)[C@@H]5CC[C@]43C)[C@@H]12` [Compound 51dd, (3β)-17-[[[3-[2-(1,1-Dioxothiomorpholin-4-yl)]Ethyl]Amino]Propyl]-28-norlup-20(29)-en-3-ol, 3-(1-Hydrogen 2,2-Dimethylbutanedioate) Sulfate], for which, in assay [1], the “% CA-SP1 Accumulation 10 nM SP1 V7A” value turned out to be 5.9% and the “% CA-SP1 Accumulation 100 nM SP1 V7A” value was found to be 7.3%. For the same molecule, in assay [2], the “% CA-SP1 Accumulation 10 nM NL4-3” value came out at 8.2% and the “% CA-SP1 Accumulation 100 nM NL4-3” value is recorded as 9.7%.
In the case of `C=C(C)[C@@H]1CC[C@]2(CCNCCN3CCN(Cc4cccc5ccccc45)CC3)CC[C@]3(C)[C@H](CC[C@@H]4[C@@]5(C)CC[C@H](OC(=O)CC(C)(C)C(=O)O)C(C)(C)[C@@H]5CC[C@]43C)[C@@H]12` [Compound 51q, (3β)-17-[2-[[2-[4-(1-Naphthalenylmethyl)piperazin-1-yl]ethyl]amino]ethyl]-28-norlup-20(29)-en-3-ol, 3-(1-Hydrogen 2,2-Dimethylbutanedioate)], the “% CA-SP1 Accumulation 10 nM SP1 V7A” value in assay [1] amounted to 11.6%. The “% CA-SP1 Accumulation 10 nM NL4-3” value in assay [2] is recorded as 26.8%.

(Values after patent US11236122B2, “Triterpene amine derivatives” (DFH THERAPEUTICS, priority 2018, dated 2022).)
